Assay results as given in article PMC11013252, “Exploration of the Antibacterial and Anti-Inflammatory Activity of a Novel Antimicrobial Peptide Brevinin-1BW” (Molecules, 2024).
Values after ≈ are worked out from the molar mass of the structure shown. Positions of bridges follow the written chain, without caps; N, C: chain ends. No end group written: not given here.

Columns and labels:
[1] = system: K. pneumoniae (ATCC700603); test: microbe, parasite or virus in culture; type: cell-based, Klebsiella pneumoniae; settings: Klebsiella pneumoniae; K. pneumoniae (ATCC700603); CLSI two-fold dilution, MH medium, 1 × 10^6 CFU/mL, 37 °C, 18 h, OD600; 9 replicates of 3 independent experiments; read-out: MIC
Experimental: (§1) The minimum inhibitory concentration (MIC) of the Brevinin-1BW was measured in 96-well microtiter plates according to the Clinical and Laboratory Standards Institute (CLSI). The activated strains were treated with Mueller Hinton Agar (MHA) solid medium. Single colonies were picked and expanded to the logarithmic growth phase, and the solution was diluted to 2 × 10^6 CFU/mL using the McFarland turbidity standard. The MIC was determined with the two-fold dilution method. Briefly, 50 μL of Mueller Hinton (MH) medium was added to a 96-well plate in advance. Then, 50 μL of AMP solution was added to the first well, and 50 μL was pipetted into the next well after mixing using a row gun, while 50 μL was discarded from the last well. Final concentrations of Brevinin-1BW were 100, 50, 25, 12.5, 6.25, and 3.125 μg/mL. A 50 μL volume of the diluted bacterial solution was added, and the final concentration of the bacterial solution was 1 × 10^6 CFU/mL. This was then placed into a 37 °C incubator for 18 h until the next day to observe the degree of turbidity of the 96-well plate and measure the absorbance of the wells at 600 nm with a multifunctional microplate reader (SpectraMax iD5, Molecular Devices, Sunnyvale, CA, USA). The absence of turbidity and the measured concentration of absorbance being less than the opposing group was taken as the MIC. The positive control used ampicillin at the same final concentration as Brevinin-1BW, the negative control used 50 μL of MH medium mixed with 50 μL of 2 × 10^6 CFU/mL bacterial solution, and the blank contained only 100 μL of MH medium. Three replicate wells were set up for each experiment, and each experiment was repeated three times. The MIC and all concentrations above the MIC of bacterial solution coated on MHA solid medium were placed into 37 °C incubator incubation for 18 h. The lowest concentration resulting in no colony growth was taken as the minimum bactericidal concentration (MBC).

[2] = system: P. aeruginosa (ATCC27853); test: microbe, parasite or virus in culture; type: cell-based, Pseudomonas aeruginosa; settings: Pseudomonas aeruginosa; P. aeruginosa (ATCC27853); CLSI two-fold dilution, MH medium, 1 × 10^6 CFU/mL, 37 °C, 18 h, OD600; 9 replicates of 3 independent experiments; read-out: MIC
Experimental: as §1

E. faecalis (ATCC29212) = test: microbe, parasite or virus in culture; type: cell-based, Enterococcus faecalis; settings: Enterococcus faecalis; E. faecalis (ATCC29212); CLSI two-fold dilution, MH medium, 1 × 10^6 CFU/mL, 37 °C, 18 h, OD600; 9 replicates of 3 independent experiments; read-out: MIC
Experimental: as §1

[3] = system: E. hormaechei (ATCC700323); test: microbe, parasite or virus in culture; type: cell-based, Enterobacter hormaechei; settings: Enterobacter hormaechei; E. hormaechei (ATCC700323); CLSI two-fold dilution, MH medium, 1 × 10^6 CFU/mL, 37 °C, 18 h, OD600; 9 replicates of 3 independent experiments; read-out: MIC
Experimental: as §1

E. coli (ATCC25922) = test: microbe, parasite or virus in culture; type: cell-based; settings: Escherichia coli; E. coli (ATCC25922); CLSI two-fold dilution, MH medium, 1 × 10^6 CFU/mL, 37 °C, 18 h, OD600; 9 replicates of 3 independent experiments; read-out: MIC
Experimental: as §1

E. coli (MDR ATCC35218) = test: microbe, parasite or virus in culture; type: cell-based, Escherichia coli; settings: Escherichia coli; E. coli (MDR ATCC35218); CLSI two-fold dilution, MH medium, 1 × 10^6 CFU/mL, 37 °C, 18 h, OD600; 9 replicates of 3 independent experiments; read-out: MIC
Experimental: as §1

[4] = system: C. koseri (CI 1611SED223); test: microbe, parasite or virus in culture; type: cell-based, Citrobacter koseri; settings: Citrobacter koseri; C. koseri (CI 1611SED223), clinical isolate; CLSI two-fold dilution, MH medium, 1 × 10^6 CFU/mL, 37 °C, 18 h, OD600; 9 replicates of 3 independent experiments; read-out: MIC
Experimental: as §1

[5] = system: S. epidermidis (CI 1607BL1D39); test: microbe, parasite or virus in culture; type: cell-based, Staphylococcus epidermidis; settings: Staphylococcus epidermidis; S. epidermidis (CI 1607BL1D39), clinical isolate; CLSI two-fold dilution, MH medium, 1 × 10^6 CFU/mL, 37 °C, 18 h, OD600; 9 replicates of 3 independent experiments; read-out: MIC
Experimental: as §1

[6] = system: S. aureus (MDR ATCC29213); test: microbe, parasite or virus in culture; type: cell-based, Staphylococcus aureus; settings: Staphylococcus aureus; S. aureus (MDR ATCC29213); CLSI two-fold dilution, MH medium, 1 × 10^6 CFU/mL, 37 °C, 18 h, OD600; 9 replicates of 3 independent experiments; read-out: MIC
Experimental: as §1

S. aureus (ATCC25923) = test: microbe, parasite or virus in culture; type: cell-based, Staphylococcus aureus; settings: Staphylococcus aureus; S. aureus (ATCC25923); CLSI two-fold dilution, MH medium, 1 × 10^6 CFU/mL, 37 °C, 18 h, OD600; 9 replicates of 3 independent experiments; read-out: MIC
Experimental: as §1

[7] = system: S. saprophytics (ATCCBAA750); test: microbe, parasite or virus in culture; type: cell-based, Staphylococcus saprophyticus; settings: Staphylococcus saprophyticus; S. saprophytics (ATCCBAA750); CLSI two-fold dilution, MH medium, 1 × 10^6 CFU/mL, 37 °C, 18 h, OD600; 9 replicates of 3 independent experiments; read-out: MIC
Experimental: as §1

[8] = system: S. haemolyticus (CI 1607BLD590); test: microbe, parasite or virus in culture; type: cell-based, Staphylococcus haemolyticus; settings: Staphylococcus haemolyticus; S. haemolyticus (CI 1607BLD590), clinical isolate; CLSI two-fold dilution, MH medium, 1 × 10^6 CFU/mL, 37 °C, 18 h, OD600; 9 replicates of 3 independent experiments; read-out: MIC
Experimental: as §1

S. aureus = settings: ref [44],[45],[46],[47]; cited from earlier work
Text: Table 5 Comparison of MICs of Brevinin-1BW and related AMPs congeners against specific microorganisms. | column: MIC (µM) / S. aureus

MRSA/MDR S. aureus = settings: ref [44],[45],[46],[47]; cited from earlier work
Text: Table 5 Comparison of MICs of Brevinin-1BW and related AMPs congeners against specific microorganisms. | column: MIC (µM) / MRSA/MDR S. aureus

E. faecalis = settings: ref [44],[45],[46],[47]; cited from earlier work
Text: Table 5 Comparison of MICs of Brevinin-1BW and related AMPs congeners against specific microorganisms. | column: MIC (µM) / E. faecalis

CC1(C)S[C@@H]2[C@H](NC(=O)[C@H](N)c3ccccc3)C(=O)N2[C@H]1C(=O)O [Ampicillin, reference compound]
MIC [1]: > 100 µg/mL | MIC [2]: > 100 µg/mL | MIC (E. faecalis (ATCC29212)): 3.12 µg/mL (≈ 8.94 µM) | MIC [3]: > 100 µg/mL | MIC (E. coli (ATCC25922)): 100 µg/mL (≈ 286 µM) | MIC (E. coli (MDR ATCC35218)): > 100 µg/mL | MIC [4]: > 100 µg/mL | MIC [5]: 3.12 µg/mL (≈ 8.94 µM) | MIC [6]: > 100 µg/mL | MIC (S. aureus (ATCC25923)): 3.12 µg/mL (≈ 8.94 µM) | MIC [7]: 3.12 µg/mL (≈ 8.94 µM) | MIC [8]: > 100 µg/mL

FLGALFKVASKLVPAAICSISKKC (disulfide 18-24 (inferred)) [Brevinin-1GHd, related Brevinin-1 family AMP from publications]
MIC (S. aureus): 2 µM | MIC (MRSA/MDR S. aureus): 4 µM

FLGAVLKVAGKLVPAAICKISKKC (disulfide 18-24 (inferred)) [Brevinin-1GHa, related Brevinin-1 family AMP from publications]
MIC (S. aureus): 2 µM | MIC (E. faecalis): 8 µM | MIC (MRSA/MDR S. aureus): 4 µM

FLGSIVGALASALPSLISKIRN [Brevinin1TSa, related Brevinin-1 family AMP from publications]
MIC (S. aureus): 25 µM | MIC (E. faecalis): 50 µM | MIC (MRSA/MDR S. aureus): 25 µM

FLPAVIRVAANVLPTVFCAISKKC (disulfide 18-24 (inferred)) [Brevinin-1JDa, related Brevinin-1 family AMP from publications]
MIC (S. aureus): 6 µM | MIC (MRSA/MDR S. aureus): 13 µM

FLPAVLRVAAKVVPTVFCLISKKC (disulfide 18-24 (inferred)) [Brevinin-1JDc, related Brevinin-1 family AMP from publications]
MIC (S. aureus): 6 µM | MIC (MRSA/MDR S. aureus): 3 µM

FLPGVLRLVTKVGPAVVCAITRNC (disulfide 18-24 (inferred)) [Brevinin-1ISa, related Brevinin-1 family AMP from publications]
MIC (S. aureus): 3.1 µM | MIC (MRSA/MDR S. aureus): 3.1 µM
